Results: patent US10064861B2, “Macrocyclic pyridazinone derivatives” (Merck Patent GmbH, priority 2013, dated 2018)

Key:
IRAK1 = IRAK1 (Homo sapiens (Human), UniProt P51617); test: IRAK1 enzymatic assay; format: biochemical; conditions: His-TEV-IRAK-1, ATP 1 μM, 3 hours at 30° C.
Procedure: IRAK1 is a human purified recombinant enzyme (His-TEV-IRAK1 (194-712)) In this assay, IRAK-1 hydrolyses ATP and autophosphorylates.
Measurement of IRAK-1 inhibition is performed in streptavidin coated 384 well FlashPlate (PerkinElmer #SMP410A).
His-TEV-IRAK-1 (15 ng/well), ATP (1 μM, [^33P]ATP 0.25 μCi/well) and compounds in DMSO (range of concentrations from 20 μM to 1 nM) or controls (2% DMSO) are incubated for 3 hours at 30° C. in assay buffer: Hepes pH 7.0 50 mM, Fatty acid-free BSA 0.1%, Dithiothreitol DTT 2 mM, MgCl2 10 mM, EGTA 0.5 mM, Triton-X-100 0.01%. Kinase reaction is stopped by addition of EDTA. Supernatant is discarded, plates are washed three times with 150 mM NaCl and radioactivity is then measured in a Microbeta Trilux reader.

IRAK4 = IRAK4 (Homo sapiens (Human), UniProt Q9NWZ3); test: IRAK4 enzymatic assay; format: biochemical; conditions: His-TEV-IRAK4, ATP 2 μM, STK1-biotin peptide 300 nM, 3 hours at 30° C.
Procedure: IRAK4 is a human purified recombinant enzyme (His-TEV-IRAK1 (194-712) IRAK4 hydrolyses ATP, autophosphorylates and phosphorylates a Serine/Threonine generic peptidic substrate (STK: 61ST1BLC from CisBio International based in Bagnols/Cèze FR).
Measurement of IRAK-4 inhibition is performed in streptavidin coated 384 well FlashPlate (PerkinElmer #SMP410A). His-TEV-IRAK4 (20 ng/well), ATP (2 μM, [^33P]ATP 0.25 μCi/well), STK1-biotin peptide (300 nM) and compounds in DMSO (range of concentrations from 20 μM to 1 nM) or controls (2% DMSO) are incubated for 3 hours at 30° C. in assay buffer: Hepes pH 7.0 50 mM, Fatty acid-free BSA 0.1%, Dithiothreitol DTT 2 mM, MgCl2 10 mM, EGTA 0.5 mM, Tween-20 0.01%, MnCl2 5 mM.
Kinase reaction is stopped by addition of EDTA. Supernatant is discarded, plates are washed three times with 150 mM NaCl and radioactivity is then measured in a Microbeta Trilux reader.

[1] = test system: TLR7 induced IL-6 secretion in human mononuclear cells (PBMC's); test: TLR7 induced IL-6 in human PBMC's; format: cell-based; conditions: TLR7 specific ligand 2 uM overnight, IL-6 AlphaLISA
Procedure: TLR7 Induced IL-6 in Human PBMC's
Human PBMC assay is used as one of the functional assay to monitor the activity of IRAK1 and IRAK4 small molecule inhibitors on TLR7 induced IL-6 secretion in human mononuclear cells (PBMC's). Human PBMCs are prepared from buffy coats (whole blood enriched with leukocytes and platelets) obtained from healthy volunteers used either fresh or frozen are plated in assay media (RPMI+2% P/S/L-glu+10% HI-FBS) and pre-treated with compounds in DMSO/media (range of concentrations from 25 μM to 0.4 nM) or controls (0.25% DMSO) for 30 minutes at 37° C. in assay media. Following pre-treatment with IRAK1 and IRAK4 inhibitors, PBMC's are stimulated with TLR7 specific ligand (2 uM) overnight (16-18 hrs) at 37° C. After incubation supernatant is transferred to 384 well PE AlphaPlate-384 (6005350) and IL-6 is quantified using Perkin Elmer IL-6 Alpha LISA kit (AL223C). Plates are read on an Envision® plate reader with Alpha Technology®.

IRAK1, sequence (P51617 194-712): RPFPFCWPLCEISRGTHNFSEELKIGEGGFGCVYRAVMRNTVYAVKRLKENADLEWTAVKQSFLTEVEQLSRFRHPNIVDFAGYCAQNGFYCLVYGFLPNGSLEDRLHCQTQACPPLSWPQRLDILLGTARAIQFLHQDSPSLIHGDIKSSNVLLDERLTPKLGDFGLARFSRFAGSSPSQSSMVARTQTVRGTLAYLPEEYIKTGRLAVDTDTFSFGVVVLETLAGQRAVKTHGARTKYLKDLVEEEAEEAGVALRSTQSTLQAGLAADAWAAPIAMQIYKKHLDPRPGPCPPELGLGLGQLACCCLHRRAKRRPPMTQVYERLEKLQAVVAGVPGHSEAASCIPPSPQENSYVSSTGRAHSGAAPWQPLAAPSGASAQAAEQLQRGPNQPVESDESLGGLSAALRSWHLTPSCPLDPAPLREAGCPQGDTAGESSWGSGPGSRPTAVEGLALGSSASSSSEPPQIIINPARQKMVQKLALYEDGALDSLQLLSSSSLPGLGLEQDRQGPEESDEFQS
IRAK4, sequence (Q9NWZ3 whole entry): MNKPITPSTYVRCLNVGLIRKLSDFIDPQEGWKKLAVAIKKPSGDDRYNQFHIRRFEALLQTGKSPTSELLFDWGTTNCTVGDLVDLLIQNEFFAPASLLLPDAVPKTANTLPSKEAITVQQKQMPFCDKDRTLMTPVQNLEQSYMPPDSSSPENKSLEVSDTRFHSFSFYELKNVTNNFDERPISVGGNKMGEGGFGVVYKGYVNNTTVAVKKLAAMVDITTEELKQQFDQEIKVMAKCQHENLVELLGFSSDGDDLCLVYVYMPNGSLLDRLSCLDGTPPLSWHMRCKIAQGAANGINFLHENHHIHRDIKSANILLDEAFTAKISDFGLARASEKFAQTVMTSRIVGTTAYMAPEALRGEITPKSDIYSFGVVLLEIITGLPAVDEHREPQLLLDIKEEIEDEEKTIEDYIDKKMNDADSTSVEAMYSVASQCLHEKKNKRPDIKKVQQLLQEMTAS

| IC50 (IRAK1) [nM] | IC50 (IRAK4) [nM] | Compound | IC50 [1] [nM] |
| --- | --- | --- | --- |
| < 100 | 100 to 1000 | CC[C@@H]1c2cccc(c2)C(=O)Nc2nc3ccccc3n2Cc2cccc(c2)-c2ccc(=O)n1n2 [Compound 36b, 24-ethyl-8,15,17,26,29-pentaazahexacyclo[23.3.1.1^2,6.1^19,23.0^8,16.0^9,14]hentriaconta-1(29),2(31),3,5,9(14),10,12,15,19,21,23(30),27-dodecaene-18,26-dione] | – |
| < 100 | < 100 | O=C1Nc2nc3cc(CN4CCOCC4)ccc3n2Cc2cccc(c2)-c2ccc(=O)n(n2)Cc2cccc1c2 [Compound 27] | – |
| < 100 | 100 to 1000 | Cc1cc(=O)n2nc1-c1cccc(c1)Cn1c(nc3ccccc31)NC(=O)c1cccc(c1)C2 [Compound 4, 28-Methyl-8,15,17,25,29-pentaazahexacyclo[23.3.1.1^2,61^19,230^8,160^9,14]hentriaconta-1(29),2(31),3,5,9(14),10,12,15,19(30),20,22,27-dodecaene-18,26-dione] | – |
| < 100 | 100 to 1000 | O=C1Nc2nc3cc(F)c(F)cc3n2Cc2cccc(c2)-c2ccc(=O)n(n2)Cc2cccc1c2 [Compound 6, 11,12-difluoro-8,15,17,25,29-pentaazahexacyclo[23.3.1.1^2,6.1^9,23.0^8,16.0^9,14]hentriaconta-1(29),2(31),3,5,9(14),10,12,15,19(30),20,22,27-dodecaene-18,26-dione] | – |
| < 100 | < 100 | Cc1cc(=O)n2nc1-c1cccc(c1)CCn1c(nc3ccccc31)NC(=O)c1cccc(c1)C2 [Compound 11, 3-methyl-6,14,16,23,32-pentaazahexacyclo[24.3.1.1^2,6.1^8,12.0^15,23.017,22]dotriaconta-1(30),2(32),3,8,10,12(31),15,17,19,21,26,28-dodecaene-5,13-dione] | – |
| < 100 | < 100 | COc1ccc2cc1CCn1c(nc3ccccc31)NC(=O)c1cccc(c1)Cn1nc-2ccc1=O [Compound 37] | – |
| < 100 | < 100 | COc1ccc2c(c1)nc1n2CC(O)CCOc2ccc(=O)n(n2)Cc2cccc(c2)C(=O)N1 (stereo not drawn) [Compound 35] | – |
| < 100 | < 100 | O=C1Nc2nc3ccccc3n2Cc2cc(ccn2)-c2ccc(=O)n(n2)Cc2cccc1c2 [Compound 16] | < 100 |
| < 100 | < 100 | O=C1Nc2nc3ccccc3n2Cc2ccc(O)c(c2)-c2ccc(=O)n(n2)Cc2cccc1c2 [Compound 12, 3-hydroxy-8,15,17,25,29-pentaazahexacyclo[23.3.1.1^2,6.1^19,23.0^8,16.0^9,14]hentriaconta-1(29),2(31),3,5,9(14),10,12,15,19(30),20,22,27-dodecaene-18,26-dione] | 1000 to 5000 |
| < 100 | < 100 | CC[C@H]1c2cccc(c2)C(=O)Nc2nc3ccccc3n2Cc2cccc(c2)-c2ccc(=O)n1n2 [Compound 36a, 24-ethyl-8,15,17,26,29-pentaazahexacyclo[23.3.1.1^2,6.1^19,23.0^8,16.0^9,14]hentriaconta-1(29),2(31),3,5,9(14),10,12,15,19,21,23(30),27-dodecaene-18,26-dione] | – |
| – | < 100 | O=C1Nc2nc3ccccc3n2Cc2cncc(c2)-c2ccc(=O)n(n2)Cc2cccc1c2 [Compound 7, 4,8,15,17,25,29-hexaazahexacyclo[23.3.1.1^2,6.1^19,23.0^8,16.0^9,14]hentriaconta-1(29),2(31),3,5,9(14),10,12,15,19(30),20,22,27-dodecaene-18,26-dione] | < 100 |
| < 100 | 100 to 1000 | O=C1Nc2nc3ccccc3n2CCOc2cccc(c2)-c2ccc(=O)n(n2)Cc2cccc1c2 [Compound 9, 26-oxa-6,14,16,23,33-pentaazahexacyclo[25.3.1.12,6,1^8,12}0^15,23.0^17,22]tritriaconta-1(31),2(33),3,8,10,12(32),15,17,19,21,27,29-dodecaene-5,13-dione] | – |
| < 100 | < 100 | COc1ccc2cc1-c1ccc(=O)n(n1)Cc1cccc(c1)C(=O)Nc1nc3ccccc3n1C2 [Compound 15, 3-methoxy-8,15,17,25,29-pentaazahexacyclo[23.3.1.1^2,6.1^19,23.0^8,16.0^9,14]hentriaconta-1(29),2(31),3,5,9(14),10,12,15,19(30),20,22,27-dodecaene-18,26-dione] | – |
| < 100 | 100 to 1000 | O=C1Nc2nc3ccccc3n2Cc2ccc(Cl)c(c2)-c2ccc(=O)n(n2)Cc2cccc1c2 [Compound 13, 3-chloro-8,15,17,25,29-pentaazahexacyclo[23.3.1.1^2,6.1^19,23.0^8,16.0^9,14]hentriaconta-1(29),2(31),3,5,9(14),10,12,15,19(30),20,22,27-dodecaene-18,26-dione] | – |
| < 100 | < 100 | O=C1Nc2nc3ccccc3n2C/C=C\COc2ccc(=O)n(n2)Cc2cccc1c2 [Compound 34] | – |
| < 100 | 100 to 1000 | O=C1Nc2nc3cc(O)ccc3n2Cc2cccc(c2)-c2ccc(=O)n(n2)Cc2cccc1c2 [Compound 31] | – |
| – | – | O=C1Nc2nc3ccccc3n2CCn2cc(cn2)-c2ccc(=O)n(n2)Cc2cccc1c2 [Compound 14, 4,6,8,15,17,25,29-heptaazahexacyclo[23.3.1.12,5.119,23.08,16.09,14]hentriaconta-1(29),2(31),3,9(14),10,12,15,19(30),20,22,27-undecaene-18,26-dione] | 100 to 1000 |
| < 100 | < 100 | COc1ccc2c(c1)nc1n2Cc2cccc(c2)-c2ccc(=O)n(n2)Cc2cccc(c2)C(=O)N1 [Compound 29] | – |
| < 100 | < 100 | CC1c2cccc(c2)C(=O)Nc2nc3ccccc3n2Cc2cccc(c2)-c2ccc(=O)n1n2 (stereo not drawn) [Compound 24] | – |
| < 100 | < 100 | Cc1cc(=O)n2nc1-c1cnn(c1)CCn1c(nc3ccccc31)NC(=O)c1cccc(c1)C2 [Compound 26] | – |
| 100 to 1000 | < 100 | COc1ccc2cc1Cn1c(nc3ccccc31)NC(=O)c1cccc(c1)Cn1nc-2ccc1=O [Compound 19, 5-methoxy-8,15,17,25,29-pentaazahexacyclo[23.3.1.1^2,6.1^19,23.0^8,16.0^9,14]hentriaconta-1(29),2(31),3,5,9(14),10,12,15,19(30),20,22,27-dodecaene-18,26-dione] | – |
| 100 to 1000 | 100 to 1000 | Cc1nn2c(C)c1-c1ccc(=O)n(n1)Cc1cccc(c1)C(=O)Nc1nc3ccccc3n1CC2 [Compound 28] | – |
| < 100 | < 100 | Cc1cc(=O)n2nc1OCCC(O)Cn1c(nc3ccccc31)NC(=O)c1cccc(c1)C2 (stereo not drawn) [Compound 30] | – |
| < 100 | < 100 | COc1ccc2c(c1)nc1n2CCn2cc(cn2)-c2ccc(=O)n(n2)Cc2cccc(c2)C(=O)N1 [Compound 33] | – |
| < 100 | < 100 | NCCc1ccc2c(c1)nc1n2Cc2cccc(c2)-c2ccc(=O)n(n2)Cc2cccc(c2)C(=O)N1 [Compound 23] | – |
| < 100 | < 100 | O=C1Nc2nc3ccccc3n2CCc2cc(ccc2O)-c2ccc(=O)n(n2)Cc2cccc1c2 [Compound 38] | – |
| < 100 | < 100 | COc1cc2nc3n(c2cc1OC)CCn1cc(cn1)-c1ccc(=O)n(n1)Cc1cccc(c1)C(=O)N3 [Compound 22] | – |
| < 100 | 100 to 1000 | O=C1Nc2nc3ccccc3n2Cc2ccc(F)c(c2)-c2ccc(=O)n(n2)Cc2cccc1c2 [Compound 10, 3-Fluoro-8,15,17,25,29-pentaazahexacyclo[23.3.1.1^2,61^19,230^8,160^9,14]hentriaconta-1(29),2(31),3,5,9(14),10,12,15,19(30),20,22,27-dodecaene-18,26-dione] | – |
